This is an account of results in patent US20100215635A1, “SMALL MOLECULES TO INDUCE WEIGHT LOSS OR TO REDUCE WEIGHT GAIN” (priority 2009, published 2010).

Holding throughout (format): in vivo, mouse
In assay [1] the test system is ob/ob mice. Put plainly: Effect on body weight of ob/ob obese mice. The settings on record: for Body weight gained: 4.5 mg/kg s.c. daily for 14 days; for Body weight: 4.5 mg/kg s.c. once daily for 14 days. The text has this: Leptin-deficient ob/ob obese diabetic inbred, adult female mice, weighing 32-36 g at arrival, specified pathogen free (SPF) hygienic category from Charles River VRF1, were used for these experiments. The ob/ob obese mouse is an extensively used animal model for the study of non-insulin-dependent-diabetes mellitus (NIDDM). The mutation was propagated in the C57BL/6J (BL/6) inbred strain. Homozygous obese (ob/ob) animals developed hyperglycemia, hyperinsulinemia and obesity. In these animals gluconeogenesis is enhanced despite their hyperinsulinemic state. The animals were kept in macrolon cages at 22-24° C. and 50-60% humidity, with lighting regimen of 12/12 h light dark. The animals had free access tap water and were fed with a sterilized standard diet (Charles River VRF1, autoclavable). The animals were cared for according to the “Guiding Principles for the Care and Use for Animals” based upon the Helsinki declaration. The ob/ob mice gained weight rapidly and develop a marked obesity by 5-6 weeks of age. […] When arrived they were 5 weeks old (when experiment was performed with CC1) or 4.5 weeks old (when experiment was performed with CC3 and CC19); the treatments started 8 days later in the experiment performed with CC1 and 10 days later in the experiment performed with CC3 and CC19. Experimental groups selected from C57/BL or ob/ob mice were injected subcutaneously at regular intervals once daily for 14 days with CCompound1, CCompound3, or CCompound19 at the dose of 4.5-mg per kg. Other groups selected from C57/BL or ob/ob mice remained untreated during the entire length of the experiment. Body weight was measured every day or every second day for 14 days and then on days 21, 40, and 48. All untreated and treated groups included 5 animals except the CCompound1-treated group of ob/ob mice that included 9 animals. The data are expressed as the average ±standard error of mean. On day 1, body weight was measured first followed by the treatment in the CCompound1-treated group. The treatments were repeated for 14 days with no additional treatment performed during the rest of the observation period. […] In contrast, CCompound1 treated mice gained 2.6-g body weight between day 1 and 14, and also only 2.6-g between day 14 and 48. On day 14 and the following days the differences in body weight were statistically highly significant (P<0.001). It is particularly important that between day 14 and 48, weight gain in the treated group was minimal compared to the control group despite discontinuation of the treatment. […] This feature allows intermittent use of CCompound1 and analogs for weight control. On day 1, first body weight was measured, followed by the treatments with CCompound3 (5 mice) or CCompound19 (5 mice) as indicated in TABLE 4. The treatments were repeated for 14 days with no additional treatment performed during the rest of the observation period. One group of animals (5 mice) served as untreated controls. […] Mice treated with CCompound3 gained 3.3-g body weight between day 1 and 15, and 6.8-g between day 15 and 48. Mice treated with CCompound19 gained 2.6-g body weight between day 1 and 15, and 4.2-g between day 15 and 48. […] Again, both CCompound3 and particularly CCompound19 were effective reducing weight between day 15 and 48 despite discontinuation of the treatment after the last treatment on day 15.

A further assay relates to C57/BL mice. Put plainly: Effect on body weight of C57/BL (non-obese control) mice. The settings on record: for Body weight gained: 4.5 mg/kg s.c. daily for 14 days; for Body weight: 4.5 mg/kg s.c. once daily for 14 days. The procedure: C57BL6 male mice (10-11 weeks old) were used as non-obese controls of ob/ob mice. These animals were kept under specified pathogen free (SPF) condition and they were fed a standard sterilized diet (Charles River) ad libitum. Experimental groups selected from C57/BL or ob/ob mice were injected subcutaneously at regular intervals once daily for 14 days with CCompound1, CCompound3, or CCompound19 at the dose of 4.5-mg per kg. Other groups selected from C57/BL or ob/ob mice remained untreated during the entire length of the experiment. Body weight was measured every day or every second day for 14 days and then on days 21, 40, and 48. All untreated and treated groups included 5 animals except the CCompound1-treated group of ob/ob mice that included 9 animals. The data are expressed as the average ±standard error of mean. This mouse strain served as the control to the ob/ob mice. On day 1, body weight was measured first followed by the treatment in the CCompound1-treated group. The treatments were repeated for 14 days. […] CCompound1 treated mice also gained 2-g body weight between day 1 and 14, and 4.2-g between day 14 and 48. This small difference between the two groups was not statistically significant. In a follow up experiment using the same treatment regimen, C57/BL mice treated with 6-mg per kg dose of CCompound1 gained 5.6-g weight gain over a 40 days period compared to 5.8-g weight gain in the control group over the same time period. Again, this small difference was not statistically significant.

Assay [2] concerns ob/ob mice. The experiment in a line: Effect on body weight of ob/ob obese mice. Particulars: ob/ob mice (Example 3, Table 4), 4.5 mg/kg s.c. once daily for 14 days; day 20.
[3] abbreviates: ob/ob mice (Example 3), then no treatment, between day 15 and 48 (untreated 11.9 g).
The mark [4] stands for this setting: ob/ob mice (Example 3), between day 1 and 15 (untreated 4.8 g).
Setting [5] is: ob/ob mice (Example 3, Table 4), day 1 (before first treatment).
Where [6] appears, read: ob/ob mice (Example 3, Table 4), day 5.
Where [7] appears, read: ob/ob mice (Example 3, Table 4), day 10.
[8] abbreviates: ob/ob mice (Example 3, Table 4), day 15.
[9] abbreviates: ob/ob mice (Example 3, Table 4), day 40, P < 0.001 vs no treatment.
Setting [10] is: ob/ob mice (Example 3, Table 4), day 48, P < 0.001 vs no treatment.

Turning to `Cc1c(OCC(O)C[N+](C)(C)C)cc2c(=O)c3ccccc3sc2c1C.[Cl-]` (centres unmarked) [CCcompound1, [3-(3,4-Dimethyl-9-oxo-9H-thioxanthen-2-yloxy)-2-hydroxypropyl]trimethyl-ammonium chloride], the Body weight gained in the assay on ob/ob mice [1] (ob/ob mice, then no treatment, between day 14 and 48 (untreated 11.6 g)) came to 2.6 g; with ob/ob mice [1] (ob/ob mice, between day 1 and 14 (untreated 4.4 g)), 2.6 g; in the assay on C57/BL mice (between day 1 and 14 (untreated 2 g)), 2 g; with C57/BL mice (between day 14 and 48 (untreated 5.2 g; difference not statistically significant)) it was 4.2 g. Further, the Body weight in the assay on ob/ob mice [1] (ob/ob mice, day 1 (before first treatment)) was determined as 40.4 ± 0.7 g; in the assay on ob/ob mice [1] (ob/ob mice, day 2), 40.4 ± 0.6 g; with ob/ob mice [1] (ob/ob mice, day 3) it was 40.6 ± 0.6 g; in the assay on ob/ob mice [1] (ob/ob mice, day 4), 40.8 ± 0.6 g; with ob/ob mice [1] (ob/ob mice, day 5), 40.7 ± 0.6 g; in the assay on ob/ob mice [1] (ob/ob mice, day 6), 41.0 ± 0.6 g. Further, the Body weight in the assay on ob/ob mice [1] (ob/ob mice, day 7) is 41.5 ± 0.6 g; in the assay on ob/ob mice [1] (ob/ob mice, day 8), 41.9 ± 0.7 g; in the assay with ob/ob mice [1] (ob/ob mice, day 9), 42.1 ± 0.7 g; in the assay on ob/ob mice [1] (ob/ob mice, day 10) it was 42.4 ± 0.7 g; in the assay with ob/ob mice [1] (ob/ob mice, day 11) it was 42.6 ± 0.6 g; in the assay on ob/ob mice [1] (ob/ob mice, day 12) it was 42.7 ± 0.6 g. The Body weight in the assay with ob/ob mice [1] (ob/ob mice, day 13) is listed as 42.9 ± 0.6 g; in the assay with ob/ob mice [1] (ob/ob mice, day 14, P < 0.001 vs no treatment), 43.0 ± 0.7 g; in the assay with ob/ob mice [1] (ob/ob mice, day 19, P < 0.001 vs no treatment), 44.3 ± 0.9 g; with ob/ob mice [1] (ob/ob mice, day 21, P < 0.001 vs no treatment) it was 44.5 ± 0.8 g; in the assay with ob/ob mice [1] (ob/ob mice, day 45, P < 0.001 vs no treatment) it was 45.6 ± 1.1 g; in the assay on ob/ob mice [1] (ob/ob mice, day 48, P < 0.001 vs no treatment) it was 45.6 ± 1.1 g. The Body weight amounted to 28.0 ± 0.7 g in the assay with C57/BL mice (day 1 (before first treatment)); 27.7 ± 0.6 g in the assay with C57/BL mice (day 2); 28.2 ± 0.7 g with C57/BL mice (day 4); 28.7 ± 0.5 g in the assay on C57/BL mice (day 6); 28.8 ± 0.4 g with C57/BL mice (day 8); 29.6 ± 0.7 g in the assay on C57/BL mice (day 10). Also, the Body weight is recorded as 30.3 ± 1.4 g with C57/BL mice (day 12); 30.0 ± 0.9 g with C57/BL mice (day 14); 30.7 ± 1.1 g with C57/BL mice (day 21); 33.9 ± 0.9 g with C57/BL mice (day 40); 34.2 ± 0.8 g with C57/BL mice (day 48). Moreover, the “Effect on body weight in normal mice” value in the assay with C57/BL mice (dose range 4.5-6 mg per kg) was “no effects on the body weight”. In the assay with C57/BL mice (follow up experiment, 6 mg per kg, same regimen, over a 40 days period (control 5.8 g; not statistically significant)), this compound registered a Weight gain of 5.6 g.
Take `CC[N+](C)(CC)CCOCc1ccc2sc3ccccc3c(=O)c2c1` [CCcompound3]: the Body weight gained in the assay on ob/ob mice [1] (setting [3]) is recorded as 6.8 g; in the assay with ob/ob mice [1] (setting [4]) it was 3.3 g. The Body weight in the assay with ob/ob mice [1] (setting [5]) worked out at 37.0 ± 0.6 g; in the assay on ob/ob mice [1] (setting [6]), 37.5 ± 1.2 g; with ob/ob mice [1] (setting [7]) it was 38.5 ± 0.9 g; in the assay on ob/ob mice [1] (setting [8]), 40.3 ± 1.1 g; in the assay with ob/ob mice [1] (setting [9]), 45.9 ± 0.8 g; in the assay on ob/ob mice [1] (setting [10]), 47.1 ± 1.0 g. Further, in the assay on ob/ob mice [2], the Body weight worked out at 42.2 ± 0.5 g.
`C[N+](C)(C)CCC=C1c2ccccc2Sc2ccccc21.[I-]` [CCcompound19, N,N,N-trimethyl-3-(9H-thioxanthen-9-ylidene)-propane-1-aminium iodide]: the Body weight gained with ob/ob mice [1] (setting [3]) is listed as 4.2 g; in the assay on ob/ob mice [1] (setting [4]), 2.6 g. The Body weight in the assay with ob/ob mice [1] (setting [5]) was determined as 38.1 ± 0.6 g; in the assay on ob/ob mice [1] (setting [6]) it was 38.4 ± 0.7 g; in the assay on ob/ob mice [1] (setting [7]) it was 39.7 ± 0.4 g; in the assay on ob/ob mice [1] (setting [8]), 40.7 ± 0.5 g; in the assay on ob/ob mice [1] (setting [9]) it was 43.8 ± 1.3 g; in the assay on ob/ob mice [1] (setting [10]), 44.9 ± 0.8 g. In the assay on ob/ob mice [2], this compound yielded a Body weight of 42.1 ± 0.9 g.
